Source: EPA's ToxValDB 9.5 (doi:10.2903/j.efsa.2017.4695)

Key:
[1] = test system: Aphidius rhopalosiphi; assay: LR50; higher = less toxic; details: acute; mortality
[2] = test system: Typhlodromus pyri; assay: LR50; higher = less toxic; details: acute; mortality
[3] = test system: Lepomis macrochirus; details: acute; duration: 96 hours; mortality
[4] = test system: Pimephales promelas; details: chronic/long-term; reproduction
[5] = test system: Bibionidae; details: chronic/long-term; duration: 28 days; development
[6] = test system: Rattus norvegicus; details: acute; oral; mortality
[7] = test system: Daphnia magna; details: chronic/long-term; duration: 21 days; reproduction
[8] = test system: Tagia sp.; details: chronic/long-term; duration: 8 weeks; reproduction
[9] = test system: Oryctolagus sp.; details: developmental; development
[10] = test system: Folsomia candida; details: chronic/long-term; duration: 4 weeks; mortality
[11] = test system: Anas platyrhynchos
[12] = test system: Colinus virginianus; details: acute; oral; mortality
[13] = test system: Apis mellifera; details: acute, mortality

For `COc1cc(OC)nc(NC(=O)NS(=O)(=O)c2c(Cl)nc3ccccn23)n1` [Imazosulfuron], the LR50 [1] was > 50 g/ha, the LR50 [2] was > 50 g/ha and the LC50 [3] was > 74 µg/mL. The NOEC [4] was 2.9 mg/L, the NOEC [5] was 490 µg/L and the LD50 [6] was > 1000 mg/kg-day. For the same compound, the NOEC [7] was 0.84 mg/L, the NOEC [8] was 500 mg/kg and the NOAEL [9] was 50 mg/kg-day. The NOEC [10] was 1000 mg/kg, the LD50 ([11]; acute, oral, unspecified, mortality) was > 2250 mg/kg-day and the NOAEL ([11]; reproductive, other) was 15.9 mg/kg-day. For the same compound, the LD50 [12] was > 2250 mg/kg-day, the LD50 ([13]; dermal) was > 100 µg/piece and the LD50 ([13]; oral, unspecified) was > 41.6 µg/piece.
